Data: US20240383904A1, “HETEROCYCLIC COMPOUNDS” (Hoffmann-La Roche Inc., priority 2021, published 2024)

Target: T1, MAGL (Homo sapiens, UniProt Q99685)
T1 sequence (Q99685 1-303): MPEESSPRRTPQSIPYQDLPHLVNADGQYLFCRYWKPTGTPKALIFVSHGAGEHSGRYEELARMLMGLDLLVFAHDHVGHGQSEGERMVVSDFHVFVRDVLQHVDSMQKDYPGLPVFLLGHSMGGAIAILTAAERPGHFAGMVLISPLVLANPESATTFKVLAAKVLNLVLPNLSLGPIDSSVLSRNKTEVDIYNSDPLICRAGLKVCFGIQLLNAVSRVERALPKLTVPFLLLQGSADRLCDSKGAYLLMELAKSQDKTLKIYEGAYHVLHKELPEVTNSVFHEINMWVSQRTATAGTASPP
Test: 2-AG assay: MAGL inhibitory activity by hydrolysis of 2-arachidonoylglycerol to arachidonic acid, followed by mass spectrometry
Type: biochemical
Conditions: 15 min preincubation, 30 min reaction at RT, 8 μM 2-arachidonoylglycerol

| SMILES | IC50 [nM] |
| --- | --- |
| O=C1NC2(CO1)CN(C(=O)N1CC3(CCC(NS(=O)(=O)c4cccc(OC(F)(F)F)c4)CC3)C1)C2 [Example 114, N-[2-(6-keto-7-oxa-2,5-diazaspiro[3.4]octane-2-carbonyl)-2-azaspiro[3.5]nonan-7-yl]-3-(trifluoromethoxy)benzene-sulfonamide] | 0.63 |
| O=C1CCC2(CN(C(=O)N3CC4(CC(Oc5cncc(C(F)(F)F)c5)C4)C3)C2)N1 [Example 299, 2-[6-[[5-(trifluoromethyl)-3-pyridyl]oxy]-2-azaspiro[3.3]heptane-2-carbonyl]-2,5-diazaspiro[3.4]octan-6-one] | 63.5 |
| CC(C)(C)c1coc(CN2CC3(C2)CN(C(=O)N2CC4(CCC(=O)N4)C2)C3)n1 [Example 374, 2-[6-[(4-tert-butyloxazol-2-yl)methyl]-2,6-diazaspiro[3.3]heptane-2-carbonyl]-2,5-diazaspiro[3.4]octan-6-one] | 88.7 |
| O=C1CCCC2(CN(C(=O)N3CC4(CCN(Cc5cccc(S(=O)(=O)C(F)(F)F)c5)C4)C3)C2)N1 [Example 266, 2-[7-[[3-(trifluoromethylsulfonyl)phenyl]methyl]-2,7-diazaspiro[3.4]octane-2-carbonyl]-2,5-diazaspiro[3.5]nonan-6-one] | 1380 |
| O=C1COCC2(CN(C(=O)N3CC4(CCN(Cc5cccc(S(=O)(=O)C(F)(F)F)c5)CC4)C3)C2)N1 [Example 134, 2-[7-(3-triflylbenzyl)-2,7-diazaspiro[3.5]nonane-2-carbonyl]-8-oxa-2,5-diazaspiro[3.5]nonan-6-one] | 19.1 |
